Test results as given in PMC9929129, “Towards Translation of PqsR Inverse Agonists: From In Vitro Efficacy Optimization to In Vivo Proof‐of‐Principle” (Advanced Science, 2023).
Converted amounts (≈) assume the structure as drawn. “And” between values parts separate entries of the source, which are not always exact repeats. Equal values may be shown once. Read-outs that look alike come from different tables or passages of the source.

Assays:
[1] = Apparent permeability in Calu-3 cell line; type: in vitro ADME; conditions: human; air–liquid interface
AhR receptor = biological target: T1, AhR receptor (Homo sapiens, UniProt P35869); experiment: AhR nuclear receptor activation, luciferase reporter gene assay; type: cell-based
T1 construct: Cyprotex
T1 sequence (P35869 11-848): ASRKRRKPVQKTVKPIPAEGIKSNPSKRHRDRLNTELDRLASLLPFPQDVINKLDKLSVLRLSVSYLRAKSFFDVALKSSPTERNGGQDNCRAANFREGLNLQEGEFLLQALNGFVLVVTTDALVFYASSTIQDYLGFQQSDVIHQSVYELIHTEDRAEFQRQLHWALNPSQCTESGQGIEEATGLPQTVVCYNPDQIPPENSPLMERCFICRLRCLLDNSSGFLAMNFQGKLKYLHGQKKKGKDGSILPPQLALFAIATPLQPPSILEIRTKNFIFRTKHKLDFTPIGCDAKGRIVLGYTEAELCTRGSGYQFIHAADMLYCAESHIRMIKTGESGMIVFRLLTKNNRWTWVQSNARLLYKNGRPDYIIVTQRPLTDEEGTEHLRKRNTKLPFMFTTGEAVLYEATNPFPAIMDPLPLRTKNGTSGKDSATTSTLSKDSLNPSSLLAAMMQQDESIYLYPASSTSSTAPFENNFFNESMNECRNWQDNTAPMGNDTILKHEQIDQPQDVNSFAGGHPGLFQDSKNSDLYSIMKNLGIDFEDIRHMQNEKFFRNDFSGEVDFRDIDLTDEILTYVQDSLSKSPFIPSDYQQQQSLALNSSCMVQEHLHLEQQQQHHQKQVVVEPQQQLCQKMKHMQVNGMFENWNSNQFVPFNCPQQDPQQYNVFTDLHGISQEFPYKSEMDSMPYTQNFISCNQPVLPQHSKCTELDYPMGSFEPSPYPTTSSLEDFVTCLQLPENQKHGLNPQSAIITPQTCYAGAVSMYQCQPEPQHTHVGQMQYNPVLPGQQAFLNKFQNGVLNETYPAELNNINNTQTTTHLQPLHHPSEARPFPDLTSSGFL
Description: (§1) 1.4.4 Pharmacokinetic and off-target functional assays (Cyprotex)
(§2) Compound 24 was assayed at Cyprotex in functional assays for interference with important off-targets as well as important pharmacokinetic parameters. With the exception of plasma protein binding, a dose-response relationship was studied in order to calculate IC50 values.
(§3) Table S10. Information on in vitro ADMET assays performed at Cyprotex. […]
(§4) An increase in the number of colonies of at least two-fold over baseline (mean + SD of the vehicle control) and a dose response indicate a positive response. An […]
(§5) different from the vehicle control.
(§6) Where indicated, S9 fraction from the livers of Aroclor 1254-treated rats were included in the incubation at a final concentration of 4.5%. A NADPH-regenerating system was also included to ensure a steady supply of reducing equivalents.

CYP2C9 = biological target: T2, CYP2C9 (Homo sapiens, UniProt P11712); experiment: Cytochrome P450 inhibition assay, CYP2C9; type: in vitro ADME; conditions: Metabolic activity
T2 construct: Cyprotex
T2 sequence (P11712 whole entry): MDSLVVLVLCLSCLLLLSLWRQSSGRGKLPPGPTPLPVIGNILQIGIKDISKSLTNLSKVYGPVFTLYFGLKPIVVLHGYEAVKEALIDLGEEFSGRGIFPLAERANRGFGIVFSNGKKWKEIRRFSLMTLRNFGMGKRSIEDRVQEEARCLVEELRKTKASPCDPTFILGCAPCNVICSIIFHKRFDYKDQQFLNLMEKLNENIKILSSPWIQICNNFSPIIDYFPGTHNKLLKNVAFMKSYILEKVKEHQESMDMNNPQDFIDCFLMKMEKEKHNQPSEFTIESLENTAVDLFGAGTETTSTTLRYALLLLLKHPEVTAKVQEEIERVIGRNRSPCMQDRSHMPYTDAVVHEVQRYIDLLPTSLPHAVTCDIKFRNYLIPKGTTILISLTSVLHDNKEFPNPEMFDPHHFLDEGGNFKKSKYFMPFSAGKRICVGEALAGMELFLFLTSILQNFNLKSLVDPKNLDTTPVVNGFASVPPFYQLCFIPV
Description: as §1, §2, §3, §4, §5, §6

[2] = biological target: T3, HTR2B Human 5-Hydroxytryptamine GPCR (Homo sapiens, UniProt P41595); experiment: HTR2B GPCR calcium assay, 86-0030P-2091AG; type: cell-based
T3 construct: 86-0030P-2091AN
T3 sequence (P41595 whole entry): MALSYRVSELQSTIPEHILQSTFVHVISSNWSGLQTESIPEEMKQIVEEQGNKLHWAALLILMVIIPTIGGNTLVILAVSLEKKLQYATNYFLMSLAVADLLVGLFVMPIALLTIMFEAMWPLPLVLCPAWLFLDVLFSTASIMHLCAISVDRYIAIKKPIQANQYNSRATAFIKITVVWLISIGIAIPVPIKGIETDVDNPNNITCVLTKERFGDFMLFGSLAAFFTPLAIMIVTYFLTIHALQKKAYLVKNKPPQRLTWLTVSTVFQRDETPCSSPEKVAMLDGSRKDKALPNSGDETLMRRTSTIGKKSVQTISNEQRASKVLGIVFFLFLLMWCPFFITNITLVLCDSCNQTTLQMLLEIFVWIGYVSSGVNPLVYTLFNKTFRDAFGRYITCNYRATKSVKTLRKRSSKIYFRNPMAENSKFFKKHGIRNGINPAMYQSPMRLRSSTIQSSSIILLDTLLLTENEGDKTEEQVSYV
Text: (§7) 1.4.2 Further functional off-target assays (Eurofins)
(§8) Table S8. Compound 24 was further tested in the following functional assays at Eurofins.
(§9) ASSAY NAME ESTIMATED IC50 [µM] […]
(§10) FLIPR Assay expressed in HEK293 cells
(§11) GABAA α5/β3/γ2 ionotropic receptor (human GABRA5, GABRB3, >30
(§12) and GABRG2 genes, expressed in HEK293 cells

[3] = biological target: T3, HTR2B Human 5-Hydroxytryptamine GPCR; experiment: HTR2B GPCR calcium assay, 86-0030P-2091AN; type: cell-based
Text: as §7, §8, §9, §10, §11, §12

[4] = biological target: T4, BK (KCa1.1/β1) calcium-activated potassium channel (Homo sapiens, UniProt Q12791); experiment: Ion channel profiling at Charles River: BK; type: cell-based; conditions: expressed in CHO cells; read-out: ESTIMATED IC50
T4 construct: host or cells: CHO cells
T4 sequence (Q12791 whole entry): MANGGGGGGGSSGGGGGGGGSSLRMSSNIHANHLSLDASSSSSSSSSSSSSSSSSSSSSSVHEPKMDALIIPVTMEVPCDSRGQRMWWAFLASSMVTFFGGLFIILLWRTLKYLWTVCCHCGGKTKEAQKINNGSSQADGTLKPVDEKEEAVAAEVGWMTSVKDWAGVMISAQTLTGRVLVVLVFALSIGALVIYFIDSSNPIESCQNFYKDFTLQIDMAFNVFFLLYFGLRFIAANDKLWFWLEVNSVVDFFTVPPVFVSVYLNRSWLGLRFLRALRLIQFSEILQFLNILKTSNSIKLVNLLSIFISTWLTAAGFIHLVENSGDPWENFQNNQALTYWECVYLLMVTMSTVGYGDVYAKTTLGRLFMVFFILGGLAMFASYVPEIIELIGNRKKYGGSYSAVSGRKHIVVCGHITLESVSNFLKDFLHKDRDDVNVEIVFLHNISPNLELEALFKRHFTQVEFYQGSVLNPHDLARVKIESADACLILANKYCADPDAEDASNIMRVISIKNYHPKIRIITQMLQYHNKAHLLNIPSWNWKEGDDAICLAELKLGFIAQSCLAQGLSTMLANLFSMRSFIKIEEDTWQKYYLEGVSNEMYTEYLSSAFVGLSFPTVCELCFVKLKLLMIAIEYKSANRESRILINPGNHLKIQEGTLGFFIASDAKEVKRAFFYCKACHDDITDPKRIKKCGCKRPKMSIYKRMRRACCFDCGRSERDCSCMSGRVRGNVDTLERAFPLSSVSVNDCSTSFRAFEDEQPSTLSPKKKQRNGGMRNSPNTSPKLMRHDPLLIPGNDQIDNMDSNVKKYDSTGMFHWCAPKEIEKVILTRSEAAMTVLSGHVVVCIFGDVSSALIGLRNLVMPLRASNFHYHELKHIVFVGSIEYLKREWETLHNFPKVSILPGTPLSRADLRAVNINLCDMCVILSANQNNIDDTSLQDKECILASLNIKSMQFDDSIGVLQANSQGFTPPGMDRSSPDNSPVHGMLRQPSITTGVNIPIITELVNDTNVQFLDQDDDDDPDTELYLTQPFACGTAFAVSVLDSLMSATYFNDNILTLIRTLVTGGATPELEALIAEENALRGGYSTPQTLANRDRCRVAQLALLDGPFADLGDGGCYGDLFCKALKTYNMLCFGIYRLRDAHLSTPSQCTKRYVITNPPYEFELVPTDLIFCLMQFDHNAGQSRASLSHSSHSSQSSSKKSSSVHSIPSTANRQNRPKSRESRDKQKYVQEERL
T4 sequence (Q16558 whole entry partner): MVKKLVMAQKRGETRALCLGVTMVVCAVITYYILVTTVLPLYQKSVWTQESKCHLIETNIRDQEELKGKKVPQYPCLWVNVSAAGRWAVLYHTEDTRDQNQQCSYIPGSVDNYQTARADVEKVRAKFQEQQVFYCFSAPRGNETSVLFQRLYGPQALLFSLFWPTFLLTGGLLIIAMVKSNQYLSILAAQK
Description: (§13) 1.4.3 Ion Channel Profiling at Charles River
(§14) Table S9. Compound 24 was tested against the following ion channels at Charles River Laboratories. […]
BK (KCa1.1/β1) calcium-activated potassium channel (human >30
KCNMA1 and KCNMB1 genes) expressed in CHO cells
FASTPatch Assay IK (KCa3.1) calcium-activated potassium channel (human KCNN4 >30 gene) expressed in CHO cells […]
as §10
(§15) GABAA α5/β3/γ2 ionotropic receptor (human GABRA5, GABRB3, >30 and GABRG2 genes, expressed in HEK293 cells

[5] = biological target: T5, hKv1.5 potassium channels (Homo sapiens, UniProt P22460); experiment: Ion channel profiling at Charles River: hKv1.5; type: cell-based
T5 construct: host or cells: CHO cells
T5 sequence (P22460 whole entry): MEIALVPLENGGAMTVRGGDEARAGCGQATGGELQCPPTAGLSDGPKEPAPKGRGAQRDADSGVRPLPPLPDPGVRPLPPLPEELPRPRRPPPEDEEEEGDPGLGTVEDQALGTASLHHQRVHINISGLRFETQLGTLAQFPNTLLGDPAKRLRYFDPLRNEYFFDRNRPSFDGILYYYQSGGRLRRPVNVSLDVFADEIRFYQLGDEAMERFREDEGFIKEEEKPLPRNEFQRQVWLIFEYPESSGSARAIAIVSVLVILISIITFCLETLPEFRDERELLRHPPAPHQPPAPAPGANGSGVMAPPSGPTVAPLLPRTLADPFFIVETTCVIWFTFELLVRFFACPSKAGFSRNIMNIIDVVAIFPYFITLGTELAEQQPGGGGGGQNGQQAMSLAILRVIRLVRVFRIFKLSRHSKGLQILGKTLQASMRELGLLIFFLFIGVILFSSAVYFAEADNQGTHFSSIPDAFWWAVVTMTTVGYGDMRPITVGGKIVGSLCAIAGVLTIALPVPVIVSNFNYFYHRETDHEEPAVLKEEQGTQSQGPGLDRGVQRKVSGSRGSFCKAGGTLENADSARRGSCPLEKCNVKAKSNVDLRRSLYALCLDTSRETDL
Description: as §13, §14
FASTPatch Assay IK (KCa3.1) calcium-activated potassium channel (human KCNN4 >30 gene) expressed in CHO cells
Cloned hKv1.5 potassium channels (encoded by the human 32.6
KCNA5 gene, expressed in CHO cells) […]
as §10, §15

Na+ channel (site 2) = experiment: Cerep panel binding assay; set-up: species or system rat; conditions: 10 µM, antagonist radioligand
Description: 1.4 Safety Pharmacology of Compound 24
1.4.1 Cerep panel (Eurofins)
Compound 24 was further profiled for its off-target interactions against a panel of 44 targets. The
screening was done by Eurofins Pharma Discovery within the SafetyScreen44 Panel (Cerep, ITEM
P270). In all assays binding/functional inhibition was determined at 10 µM.
Table S6. […]

[6] = Mouse maximum tolerated dose (MTD) study; type: in vivo, NMRI mice
Description: 1.4.6 Mouse Maximum tolerated dose (MTD) study (Aurigon)
The maximum tolerated dose of 24 in NMRI mice was conducted and analyzed at CRO ATRC Aurigon Toxicological Research Center Ltd, Hungary. The study was conducted in accordance with Standard Operating Procedures of ATRC and the requirements of EEC Directive 2001/83/EC of the European Parliament and of the Council of November 6, 2001 on the Community Code relating to Medicinal Products for human use (Official Journal L -311,28/11/2004, p.67–128) as amended by EEC Directive 2004/27/EC of the European Parliament and the Council of March 31, 2004 amending Directive 2001/83/EC on the Community code relating to medicinal products for human use (Official Journal L - 136, 30/04/2004, p. 34-57), ICH Guideline M3(R2) “Guidance on Nonclinical Safety Studies for the Conduct of Human Clinical Trials and Marketing Authorization for Pharmaceuticals”, ICH Guideline S3A “Toxicokinetics: The Assessment of Systemic Exposure in Toxicity Studies”, OECD Guideline for the Testing of Chemicals: Toxicokinetics, (OECD 417, 2010). This study was conducted in compliance with the principles of Hungarian Act 1998: XXVIII regulating animal protection (latest modified by Act 2011 CLVIII) and in Government Decree 40/2013 on animal experiments. Handling and care of the animals will be conducted according to the Guide for the Care and Use of Laboratory Animals, NRC, […]
Animals were 6 weeks old and weighed 27–34 g. 24 was applied subcutaneously in a formulation […]
48 h. As no clinical findings were observed, 30 mg/kg was then applied to the next group. Likewise, 60 mg/kg were applied 48 h after. Mortality was observed twice a day. Clinical observation was performed directly after dosing, 1 h, 2 h, 4 h, 24 h and 48 h after administration. Body weight was registered prior to treatment and daily after the dosing for 48 h. For serum concentration determination, 100 μL blood were collected from each animal at 0.5 h and 4 h time points after the administration, processed to plasma and analyzed using HPLC-MS/MS at HZI. Each group consisted of 5 male and 5 female mice, 2 of which were used for blood collection.

[7] = system: Bronchiectasis clinical isolates, PA14 and PAO1; experiment: Antimicrobial minimal inhibitory concentrations (MIC), microdilution; conditions: Pseudomonas aeruginosa

CC(C)Oc1ccc(-c2ncc(CNc3ccnc(C(F)(F)F)c3)cn2)cc1Cl [Compound 24]
Papp at 4 h [1]: 3.1 ± 0.28 ×10⁻⁶ cm/s
fold AhR receptor induction (AhR receptor; fold activation @1 × 10^−6 M): 0.91 @1 × 10^−6 M ^a)
AhR induction (AhR receptor; up to 25 × 10^−6 M): Neither AhR induction
IC50 (CYP2C9): > 25 µM
IC50 [2]: > 10 µM
IC50 [3]: > 10 µM
IC50 [4]: > 30 µM
IC50 ([5]; expressed in CHO cells, read-out: ESTIMATED IC50): 32.6 µM
IC50 ([5]; read-out: hKv1.5 functional inhibition IC50): ~30 µM
BINDING (%) (Na+ channel (site 2)): 57.2% and > 50%
clinical findings ([6]; 60 mg kg^−1 subcutaneous, slight, transient, at 2 and 4 h): piloerection and decreased activity (3 of 10 mice)
mortality or loss of body weight ([6]; 10, 30, and 60 mg kg^−1 subcutaneous, during 48 h): no mortality or loss of body weight
clinical findings ([6]; 10 and 30 mg kg^−1 subcutaneous): devoid of any clinical findings
tolerability in male and female mice ([6]; up to 60 mg kg^−1 subcutaneous): well tolerated

NC[C@H]1O[C@H](O[C@H]2[C@H](O)[C@@H](O[C@H]3O[C@H](CO)[C@@H](O)[C@H](N)[C@H]3O)[C@H](N)C[C@@H]2N)[C@H](N)C[C@@H]1O [Tobramycin, tobramycin]
MIC ([7]; PA14|PAO1, strain column 1 of 16 (strain heads not assignable)): 1 µg/mL (≈ 2.14 µM)
MIC ([7]; strain column 2 of 16): 1 µg/mL (≈ 2.14 µM)
MIC ([7]; strain column 3 of 16): ≤ 0.5 µg/mL
MIC ([7]; strain column 4 of 16): ≤ 0.5 µg/mL
MIC ([7]; strain column 5 of 16): ≤ 0.5 µg/mL
MIC ([7]; strain column 6 of 16): ≤ 0.5 µg/mL
MIC ([7]; strain column 7 of 16): ≤ 0.5 µg/mL
MIC ([7]; strain column 8 of 16): 2 µg/mL (≈ 4.28 µM)
MIC ([7]; strain column 9 of 16): 1 µg/mL (≈ 2.14 µM)
MIC ([7]; strain column 10 of 16): ≤ 0.5 µg/mL
MIC ([7]; strain column 11 of 16): ≤ 0.5 µg/mL
MIC ([7]; strain column 12 of 16): ≤ 0.5 µg/mL
MIC ([7]; strain column 13 of 16): ≤ 0.5 µg/mL
MIC ([7]; strain column 14 of 16): ≤ 0.5 µg/mL
MIC ([7]; strain column 15 of 16): ≤ 0.5 µg/mL
MIC ([7]; strain column 16 of 16): ≤ 0.5 µg/mL
